# Where a SMILES comes first, the peptide text is derived from it. Bridges are numbered along the chain shown (N, C = ends). Roman numbers before positions name the chains, in order. [ ]: non-standard residue; d: D form. Thr(ol) = C[C@@H](O)[C@H](N)CO; Pen = CC(C)(S)[C@H](N)C(=O)O; Tle = CC(C)(C)[C@H](N)C(=O)O; d(hSer) = N[C@H](CCO)C(=O)O; Hiv = CC(C)[C@H](O)C(=O)O; dDab = NCC[C@@H](N)C(=O)O; hSer = N[C@@H](CCO)C(=O)O; Orn = NCCC[C@H](N)C(=O)O; Dab = NCC[C@H](N)C(=O)O; Dap = NC[C@H](N)C(=O)O
# What was measured:
# Type in all cases: cell-based
# [1] = test system: human red blood cells (hRBC); assay: Hemolysis; conditions: red cells of human, 1 h, 200
# Outline: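 Percent lysis of human red cells was derived from OD540 of the supernatant, referenced to 2% Triton X-100, after a 1 h, 37° C incubation of 20% (v/v) cells with 200 μg/mL peptide.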
# [2] = test system: Klebsiella pneumoniae SSI #3010; conditions: SSI #3010
# Outline: (§1)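 Cation-adjusted MH-II broth, 0.002% polysorbate 80, inoculum near 10^6 CFU/mL. MIC read visually after 18-20 h, 35° C; units μg/mL.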
# [3] = test system: Escherichia coli ATCC 25922; conditions: ATCC 25922
# Outline: as §1
# [4] = test system: Pseudomonas aeruginosa ATCC 27853; conditions: ATCC 27853
# Outline: as §1
# [5] = test system: Enterobacter cloacae 848840; conditions: 848840
# Outline: as §1
# Escherichia coli 926415 = conditions: 926415
# Outline: as §1
# [6] = test system: Acinetobacter baumannii 872842; conditions: 872842
# Outline: as §1
# [7] = test system: Klebsiella pneumoniae 968733; conditions: 968733
# Outline: as §1
# [8] = test system: Acinetobacter baumannii DSM 30008; conditions: DSM 30008
# Outline: as §1
MIC [2] [µg/mL],MIC [3] [µg/mL],MIC [4] [µg/mL],MIC [5] [µg/mL],MIC (Escherichia coli 926415) [µg/mL],MIC [6] [µg/mL],MIC [7] [µg/mL],MIC [8] [µg/mL],Klebsiella pneumoniae SSI #3010 MIC [2] [µg/mL],Escherichia coli ATCC 25922 MIC [3] [µg/mL],Pseudomonas aeruginosa ATCC 27853 MIC [4] [µg/mL],Acinetobacter baumannii DSM 30008 MIC [8] [µg/mL],SMILES,Hemolysis at 200 μg/mL [1] [%]
0.0625,0.125,0.125,0.25,0.0625,0.0625,0.125,0.0625,–,–,–,–,CC(=O)N[C@H](C(=O)N[C@H]1CSSC[C@@H](C(=O)N[C@@H](CO)C(N)=O)NC(=O)[C@H](C(C)(C)C)NC(=O)[C@H](CO)NC(=O)[C@H](Cc2c[nH]c3ccccc23)NC(=O)[C@H](CCN)NC(=O)[C@@H](CCN)NC(=O)[C@H](CCC(=O)N[C@@H](CCN)C(=O)N[C@H](C(=O)N[C@@H](CN)C(=O)N[C@H]2CCNC(=O)[C@H]([C@@H](C)O)NC(=O)[C@H](CCN)NC(=O)[C@H](CCN)NC(=O)[C@H](CC(C)C)NC(=O)[C@@H](CC(C)C)NC(=O)[C@H](CCN)NC2=O)[C@@H](C)O)NC(=O)[C@H](CN)NC(=O)[C@H](Cc2ccc(O)cc2)NC1=O)C(C)C [Ex. 120] (I: Ac-VCY[Dap]E[dDab][Dab]WS[Tle]CS-NH2 / II: [Dab]T[Dap][Dab][Dab][dL]L[Dab][Dab]T; disulfide I:2-I:11; amide I:5-II:N; lactam II:4-II:C),1
0.25,0.125,0.125,4,0.5,4,0.5,0.125,–,–,–,–,CC(=O)N[C@H](C(=O)N[C@H]1CSSC[C@@H](C(N)=O)NC(=O)[C@H](C(C)C)NC(=O)[C@H](CCO)NC(=O)[C@H](Cc2c[nH]c3ccccc23)NC(=O)[C@H](CCO)NC(=O)[C@@H](CCN)NC(=O)[C@H](CCC(=O)N[C@@H](CCN)C(=O)N[C@H](C(=O)N[C@@H](CCN)C(=O)N[C@H]2CCNC(=O)[C@H]([C@@H](C)O)NC(=O)[C@H](CCN)NC(=O)[C@H](CCN)NC(=O)[C@H](CC(C)C)NC(=O)[C@@H](CC(C)C)NC(=O)[C@H](CCN)NC2=O)[C@@H](C)O)NC(=O)[C@H](CCN)NC(=O)[C@H](Cc2ccc(O)cc2)NC1=O)C(C)C [Example 6] (I: Ac-VCY[Dab]E[dDab][hSer]W[hSer]VC-NH2 / II: [Dab]T[Dab][Dab][Dab][dL]L[Dab][Dab]T; disulfide I:2-I:11; amide I:5-II:N; lactam II:4-II:C),2

# The next lines start with the molecule.
SMILES,MIC [2] [µg/mL],MIC [3] [µg/mL],MIC [4] [µg/mL],MIC [5] [µg/mL],MIC (Escherichia coli 926415) [µg/mL],MIC [6] [µg/mL],MIC [7] [µg/mL],MIC [8] [µg/mL],Klebsiella pneumoniae SSI #3010 MIC [2] [µg/mL],Escherichia coli ATCC 25922 MIC [3] [µg/mL],Pseudomonas aeruginosa ATCC 27853 MIC [4] [µg/mL],Acinetobacter baumannii DSM 30008 MIC [8] [µg/mL],Hemolysis at 200 μg/mL [1] [%]
CC(C)C[C@@H]1NC(=O)[C@@H](CC(C)C)NC(=O)[C@H](CCN)NC(=O)[C@@H](NC(=O)[C@H](CCN)NC(=O)[C@@H](NC(=O)[C@H](CCN)NC(=O)CC[C@@H]2NC(=O)[C@H](CCN)NC(=O)[C@H](Cc3ccc(O)cc3)NC(=O)[C@@H](NC(=O)[C@@H](O)C(C)C)CSSC[C@@H](C(=O)N[C@H](CO)[C@@H](C)O)NC(=O)[C@H](C(C)(C)C)NC(=O)[C@H]([C@@H](C)O)NC(=O)[C@H](Cc3c[nH]c4ccccc34)NC(=O)[C@H](CCO)NC(=O)[C@@H](CCN)NC2=O)[C@@H](C)O)CCNC(=O)[C@H]([C@@H](C)O)NC(=O)[C@H](CCN)NC(=O)[C@H](CCN)NC1=O [Ex. 76] (I: H-[Hiv]CY[Dab]E[dDab][hSer]WT[Tle]C[Thr(ol)] / II: [Dab]T[Dab][Dab][Dab][dL]L[Dab][Dab]T; disulfide I:2-I:11; amide I:5-II:N; lactam II:4-II:C),0.125,0.0625,0.25,0.125,0.125,0.25,0.125,0.0625,–,–,–,–,1
"CC(=O)N[C@H](C(=O)N[C@H]1CCCNC(=O)[C@@H](CCO)NC(=O)[C@H](C(C)(C)C)NC(=O)[C@H](CO)NC(=O)[C@H](Cc2c[nH]c3ccccc23)NC(=O)[C@H](CCO)NC(=O)[C@@H](CCN)NC(=O)[C@H](CCC(=O)N[C@@H](CCN)C(=O)N[C@H](C(=O)N[C@@H](CN)C(=O)N[C@H]2CCNC(=O)[C@H]([C@@H](C)O)NC(=O)[C@H](CCN)NC(=O)[C@H](CCN)NC(=O)[C@H](CC(C)C)NC(=O)[C@@H](CC(C)C)NC(=O)[C@H](CCN)NC2=O)[C@@H](C)O)NC(=O)[C@H](CO)NC(=O)[C@H](Cc2ccc(O)cc2)NC1=O)C(C)C [Ex. 22] (I: Ac-V[Orn]YSE[dDab][hSer]WS[Tle][d(hSer)] / II: [Dab]T[Dap][Dab][Dab][dL]L[Dab][Dab]T; lactam I:2-I:C, II:4-II:C; amide I:5-II:N)",0.125,0.0625,0.5,0.125,0.5,0.25,1,0.0625,–,–,–,–,<1
"CC(=O)N[C@H](C(=O)N[C@H]1CCNC(=O)CC[C@@H](C(=O)N[C@@H](CO)C(N)=O)NC(=O)[C@H](C(C)(C)C)NC(=O)[C@H](CO)NC(=O)[C@H](Cc2c[nH]c3ccccc23)NC(=O)[C@H](CO)NC(=O)[C@@H](CCN)NC(=O)[C@H](CCC(=O)N[C@@H](CCN)C(=O)N[C@H](C(=O)N[C@@H](CN)C(=O)N[C@H]2CCNC(=O)[C@H]([C@@H](C)O)NC(=O)[C@H](CCN)NC(=O)[C@H](CCN)NC(=O)[C@H](CC(C)C)NC(=O)[C@@H](CC(C)C)NC(=O)[C@H](CCN)NC2=O)[C@@H](C)O)NC(=O)[C@H](CN)NC(=O)[C@H](Cc2ccc(O)cc2)NC1=O)C(C)C [Ex. 146] (I: Ac-V[Dab]Y[Dap]E[dDab]SWS[Tle]ES-NH2 / II: [Dab]T[Dap][Dab][Dab][dL]L[Dab][Dab]T; lactam I:2-I:11, II:4-II:C; amide I:5-II:N)",0.0625,0.0625,0.125,0.25,0.25,0.125,0.25,0.0625,–,–,–,–,<1
CC(=O)N[C@@H]1C(=O)N[C@@H]([C@@H](C)O)C(=O)N[C@@H](Cc2ccc(O)cc2)C(=O)N[C@@H](CCN)C(=O)N[C@@H](CCC(=O)N[C@@H](CCN)C(=O)N[C@H](C(=O)N[C@@H](CN)C(=O)N[C@H]2CCNC(=O)[C@H]([C@@H](C)O)NC(=O)[C@H](CCN)NC(=O)[C@H](CCN)NC(=O)[C@H](CC(C)C)NC(=O)[C@@H](CC(C)C)NC(=O)[C@H](CCN)NC2=O)[C@@H](C)O)C(=O)N[C@H](CCN)C(=O)N[C@@H](CCN)C(=O)N[C@@H](Cc2c[nH]c3ccccc23)C(=O)N[C@@H](CCC(=O)O)C(=O)N[C@@H](C(C)(C)C)C(=O)N[C@@H](C)C(=O)N[C@H](C(N)=O)CSSC1(C)C [Ex. 228] (I: Ac-[Pen]TY[Dab]E[dDab][Dab]WE[Tle]AC-NH2 / II: [Dab]T[Dap][Dab][Dab][dL]L[Dab][Dab]T; disulfide I:1-I:12; amide I:5-II:N; lactam II:4-II:C),0.25,0.5,0.25,8,1,4,1,1,–,–,–,–,<1
CC(C)C[C@@H]1NC(=O)[C@@H](CC(C)C)NC(=O)[C@H](CCN)NC(=O)[C@@H](NC(=O)[C@H](CCN)NC(=O)[C@@H](NC(=O)[C@H](CCN)NC(=O)CC[C@@H]2NC(=O)[C@@H](NC(=O)[C@H](Cc3ccc(O)cc3)NC(=O)[C@@H](NC(=O)[C@@H](O)C(C)C)[C@@H](C)O)C(C)(C)SSC[C@@H](C(=O)N[C@H](C(=O)N[C@@H](C)C(=O)N[C@H](CO)[C@@H](C)O)C(C)(C)C)NC(=O)[C@H](Cc3c[nH]c4ccccc34)NC(=O)[C@H](CCO)NC(=O)[C@@H](CCN)NC2=O)[C@@H](C)O)CCNC(=O)[C@H]([C@@H](C)O)NC(=O)[C@H](CCN)NC(=O)[C@H](CCN)NC1=O [Ex. 194] (I: H-[Hiv]TY[Pen]E[dDab][hSer]WC[Tle]A[Thr(ol)] / II: [Dab]T[Dab][Dab][Dab][dL]L[Dab][Dab]T; disulfide I:4-I:9; amide I:5-II:N; lactam II:4-II:C),0.0625,0.0625,0.125,0.125,0.5,0.25,0.25,0.0625,–,–,–,–,<1
"CC(=O)N[C@H](C(=O)N[C@H]1CCNC(=O)CC[C@@H](C(=O)N[C@@H](CO)C(N)=O)NC(=O)[C@H](CC(C)C)NC(=O)[C@H](CO)NC(=O)[C@H](Cc2c[nH]c3ccccc23)NC(=O)[C@H](CO)NC(=O)[C@@H](CCN)NC(=O)[C@H](CCC(=O)N[C@@H](CCN)C(=O)N[C@H](C(=O)N[C@@H](CN)C(=O)N[C@H]2CCNC(=O)[C@H]([C@@H](C)O)NC(=O)[C@H](CCN)NC(=O)[C@H](CCN)NC(=O)[C@H](CC(C)C)NC(=O)[C@@H](CC(C)C)NC(=O)[C@H](CCN)NC2=O)[C@@H](C)O)NC(=O)[C@H](CCN)NC(=O)[C@H](Cc2ccc(O)cc2)NC1=O)C(C)C [Ex. 327] (I: Ac-V[Dab]Y[Dab]E[dDab]SWSLES-NH2 / II: [Dab]T[Dap][Dab][Dab][dL]L[Dab][Dab]T; lactam I:2-I:11, II:4-II:C; amide I:5-II:N)",–,–,–,0.125,0.25,0.125,0.5,–,0.0625,0.0625,0.125,0.0625,<1
